Common to all, as to format: cell-based
For test [1], the system named is NIH3T3C7 cells. Briefly: 3T3/HER2 Cell Growth Assay, 3T3 control cells (beside 3T3 HER-2). To be noted: 96 h; 10% FBS; column beside 3T3 HER-2; 4 days; read-out: Cell Growth Assays, 3T3 10% FBS. As for the experimental part:
(§1) The NIH3T3 growth assay, using cell lines capable of expressing HER2, was carried out as follows:
(§2) m. NIH3T3C7 cells in 10% CS+2 mM glutamine DMEM HER2C7 cells in 2% FBS+2 mM glutamine DMEM
(§3) 1. HER2C7 (engineered to express HER2) and NIH3T3C7 (as the control) cells are used for this assay. NIH3T3C7 cells are seeded at 2500 cells/well, […] in 10% CS+2 mM glutamine DMEM, in a 96 well plate; HER2C7 cells are seeded at 6000 cells/well, 100 μl/well in 2% FBS+2 mM glutamine DMEM, in a 96 well plate. Cells are incubated at 37° C., 5% CO2 overnight to allow for cell attachment to the plate;
(§4) 2. The TBST compound is added to the cells at day 2. The compounds are prepared in the appropriate growth medium (10% CS+2 mM) glutamine DMEM for NIH3T3C7 cells; 2% FBS+2 mM glutamine DMEM for HER2C7 cells) in a 96 well plate, and serially diluted. A total of 100 μl/well medium of the diluted compounds is added into the cells. The total volume of each well is 200 μl. Quadruplicates (wells) and 11 concentration points are applied to each compound tested.
(§5) 3. After the cells are treated with the compound for 4 days, the cells are washed with PBS and fixed with 200 μl/well ice-cold 10% TCA for one hour at 0-5° C. condition.
(§6) 4. Remove TCA and rinse wells […] with deionized water. Dry plates upside down with paper towels. […]
7. Read the plate at dual wavelengths at 570 nm and 630 nm on Dynatech Elisa plate reader.

The test system of test [2] is NIH3T3 c7 cells. Briefly: Cell growth assay, 3T3 control cells (beside 3T3 IGF-1R). To be noted: Mus musculus, 10% FBS, column beside 3T3 IGF-1R, read-out: Cell Growth Assays, 3T3 10% FBS. As for the experimental part:
(§7) a. The NIH3T3/IGF-1R (10% FBS/2 mM glutamine/DMEM) and NIH3T3 c7 (10% calf serum/2 mM glutamine/DMEM) cell lines were used wherein the NIH3T3 cells (and cells derived from them) were handled such that they were not allowed to become confluent, thus decreasing the likelihood of spontaneous transformation.
(§8) Day 0: Cell Plating--Trypsinize and count NIH3T3/IGF-1R and NIH3T3 c7 cells. Dilute in growth media to 2000 cells/200 μl and seed flat bottom 96-well plates with 200 μl/well, one plate for two compounds for each cell line.
Day 4: Refeed--Repeat steps above, adding exactly the same IGF-1 and compound concentration to each well as before.
Using wells in column 2 (treated with IGF-1 but not compound) as 100%, calculate percent of control for each concentration of compound.
Use a curve fit method to graph percent of control vs. log(molar concentration) and determine the IC50.

In test [3] the test system is HER2C7 cells (NIH3T3 engineered to express HER2). Briefly: 3T3/HER2 Cell Growth Assay, 3T3 HER-2 cells. The following applies: Mus musculus, NIH3T3, 96 h; 2% FBS; 4 days; read-out: Cell Growth Assays, 3T3 HER-2 2% FBS. As for the experimental part: as §1, §2, §3, §4, §5, §6
7. Read the plate at dual wavelengths at 570 nm and 630 nm on Dynatech Elisa plate reader. […]

In test [4] the test system is NIH3T3/IGF-1R cells. The test can be described thus: IGF-I Receptor Growth Assay, 3T3 IGF-1R cells. The following applies: Mus musculus, 0.5% FBS, 10 nM IGF-1, read-out: Cell Growth Assays, 3T3 IGF-1R 0.5% FBS. As for the experimental part: Assay 2: IGF-I Receptor Growth Assay
Materials And Methods. The following materials were used to conduct the IGF-I receptor growth assay:
as §7
Using the above described materials, the following steps were performed under aseptic conditions until fixing the cells for the SRB assay:
as §8
Day 1: Compound Preparation--Add DMSO to each compound to make 100 mM stock solutions.
NIH3T31IGF-1R cells--For each 96-well plate, make 15 ml of 10 nM IGF-1/0.5% FBS/2 mM glutamine/DMEM (30 μl of 5 μM IGF-1/15 ml).
Add 3 μl of 100 mM stock of each compound to a tube so 200 μM final. Shake or vortex until it goes into solution. If it is necessary to add additional medium, note the final concentration.
Do 2-fold dilutions (130 μl) from columns 12 to 3 on each plate (column 2 will be for the untreated control), mixing thoroughly. […]

For test [5], the system named is MCF7 cells. The test can be described thus: MCF-7 SRB Growth Assay. The following applies: Homo sapiens, MCF7, 96 h; 10% FBS; 4 days; read-out: Cell Growth Assays, MCF7 10% FBS. As for the experimental part: Assay 1: MCF-7 RB Growth Assay. MCF-7 cells are seeded at 2000 cells/well in a 96-well flat bottom plate in normal growth media, which was 10% FBS/RPMI supplemented with 2 mM Glutamine. The plate of cells is incubated for about 24 hours at 37° C. after which it receives an equal volume of compound dilution per well making the total volume per well 200 μl. The compound is prepared at 2 times the desired highest final concentration and serially diluted in the normal growth media in a 96-well round bottom plate and then transferred to plate of cells. DMSO serves as the vector control up to 0.2% as final concentration. The cells are then incubated at 37° C. in a humidified 5% CO2 incubator. Four days following dosing of compound, the media is 15 discarded and 200 μl/well of ice-cold 10% TCA (Trichloroacetic Acid) is added to fix cells. After 60 minutes at 4° C., the TCA is discarded and the plate is rinsed 5 times with water. The plate is then air-dried and 100 μl/well of 0.4% SRB (Sulforhodamine B from Sigma) 20 in 1% Acetic Acid is added to stain cells for 10 minutes at room temperature. The SRB is discarded and the plate is rinsed 5 times with 1% Acetic Acid. After the plate is completely dried, 100 μl/well of 10 mM Tris-base is added to solubilize the dye. After 5 to 10 minutes, the plate is read on a Dynatech ELISA Plate Reader at dual wavelengths at 570 nm and 630 nm. […]

For test [6], the system named is MCF7 cells overexpressing HER2 kinase (MCF7-HER2). The test can be described thus: MCF-7/HER-2 SRB Growth Assay. To be noted: Homo sapiens, MCF7, 96 h; 0.5% FBS; 4 days; read-out: Cell Growth Assays, MCF7 Her-2 0.5% FBS.

Molecules are shown by their SMILES.

Take `COc1cccc2c1OC(c1ccc(F)cc1)C([N+](=O)[O-])=C2` (stereo not drawn) [Compound A, 2-(4-Fluorophenyl)-8-methoxy-3-nitro-1,2-benzopyran]: the IC50 in test [1] was 70 µM; in test [2] it was 5.6 µM; in test [3], 1.8 µM; in test [4] it was 2.5 µM; in test [5], 2 µM; in test [6], 0.8 µM.

Values taken from patent publication US5763470A, “Benzopyran compounds and methods for their use” (Sugen Inc., priority 1995, dated 1998).
